Test results reported in BindingDB's records for doi:10.1021/jm00076a030 (Eli Lilly, 1994).

Biological target: Leukotriene B4 receptor (Cavia porcellus)
Experiment: Tested for inhibition of specific binding of [3H]LTB4 to guinea pig lung membranes expressing LTB4 receptor

Ki [nM] | SMILES
12 | CCc1cc(-c2ccccc2)c(O)cc1OCCCOc1ccc2c(=O)c3ccccc3oc2c1CCC(=O)O [3-{3-[3-(5-Ethyl-2-hydroxy-biphenyl-4-yloxy)-propoxy]-9-oxo-9H-xanthen-4-yl}-propionic acid]
0.11 | CCc1cc(-c2ccccc2)c(O)cc1OCCCOc1ccc2c(=O)c3cc(C(=O)O)ccc3oc2c1CCC(=O)O [5-(2-Carboxy-ethyl)-6-[3-(5-ethyl-2-hydroxy-biphenyl-4-yloxy)-propoxy]-9-oxo-9H-xanthene-2-carboxylic acid]
